# In US9079859B2, “Synthetic lethal targeting of glucose transport” (AUCKLAND UNISERVICES LIMITED, priority 2011, dated 2015):
# Tests used:
# [1] = test system: RCC4 and RCC4/VHL cells; experiment: Apoptosis (nuclear condensation, annexin V / propidium iodide); format: cell-based; conditions: VHL-deficient and wild-type VHL RCCs, DAPI
# [2] = test system: UMRC6; experiment: RCC panel sensitivity (Table 2); format: cell-based; conditions: UMRC6, VHL mutant
# [3] = target: 50 different kinases; experiment: In vitro kinase panel (Millipore Kinase Profiler); format: biochemical
# Protocol: (§1) Cell Culture and Reagents. All cells were grown in DMEM+10% FCS. ACHN and ACHN shVHL were a kind gift from George V. Thomas (UCLA). HIF overexpressing clones were described previously (Sutphin et al., Cancer Res, 67:5896-5905 (2007)). Transfection of RNA oligos were performed with DnarmaFECT Reagent 1 (Dharmcon), according to manufacturer's directions. ON-TARGETplus SMART pools against HIF-1 R/ARNT were purchased from Dharmacon. Inducible shRNAmir to GLUT1 was purchased from Open Biosystems. GLUT1 was detected with anti-GLUT1 antibody from NeoMarkers/LabVision/Fisher. For immunofluorescent studies, GLUT1, GLUT2, and GLUT3 antibodies were purchased from R&D. Pyruvate/lactate levels and hexokinase activity were both measured by fluorometric assay (BioVision and Sigma-Aldrich, respectively). ATP levels were measured by bioluminescence assay (ATP Determination Kit from Molecular Probes/Invitrogen). In vitro kinase activities were performed by Millipore Kinase Profiler.
# [4] = test system: cells with wild-type VHL; experiment: Glycolysis (lactate, extracellular acidification), wild-type VHL cells; format: cell-based; conditions: lactate and extracellular acidification
# Protocol: (§2) HIF is important to adapting to low oxygen conditions through the transcription of many genes, including those involved in glucose metabolism. It was hypothesized that STF-31 might inhibit metabolic pathways, leading to necrotic cell death. To examine whether this compound alters glycolysis, intracellular lactate, which is rapidly converted from the glycolysis end product pyruvate, and extracellular acidification were measured. Baseline levels of glycolysis were lower in wild-type VHL cells compared to VHL-deficient cells (FIGS. 2, A and B), likely a result of the constitutive expression of HIF and subsequent overexpression of glucose transporters and glycolytic enzymes in the latter.
# [5] = test system: RCC4 cells; experiment: Lactate production, VHL-deficient cells; format: cell-based; set-up: dose or concentration left out as unconfirmed; conditions: VHL-deficient cells vs control-treated; STF-31 as printed in FIG. 2 legend
# Protocol: as §2
# as §1, with “Transfection of RNA oligos were performed with DnarmaFECT Reagent 1 (Dharmcon), according to manufacturer's directions. ON-TARGETplus SMART pools against HIF-1 R/ARNT were purchased from Dharmacon. Inducible shRNAmir to GLUT1 was purchased from Open Biosystems.” left out, “In vitro kinase activities were performed by Millipore Kinase Profiler.” left out
# [6] = test system: RCC4/VHL; experiment: RCC panel sensitivity (Table 2); format: cell-based; conditions: VHL wild-type
# [7] = test system: VHL-deficient cells; experiment: Extracellular acidification rate, VHL-deficient cells; format: cell-based; set-up: dose or concentration left out as unconfirmed; conditions: VHL-deficient cells vs control-treated; 48 hours
# Protocol: as §2
# [8] = test system: Caki-1; experiment: RCC panel sensitivity (Table 2); format: cell-based; conditions: Caki-1, VHL wild-type
# [9] = target: T1, CaMKI (Homo sapiens, UniProt Q14012); experiment: Kinase Profiler; format: biochemical; conditions: STF-31 10 μM
# T1 construct: purchased Millipore (Kinase Profiler service)
# Protocol: as §1
# [10] = target: T2, Hck (Homo sapiens, UniProt P08631); experiment: Kinase Profiler; format: biochemical; conditions: STF-31 10 μM
# T2 construct: purchased Millipore Kinase Profiler
# Protocol: as §1
# [11] = target: T3, PKA (Homo sapiens, UniProt P17612); experiment: Kinase Profiler; format: biochemical; conditions: STF-31 10 μM
# T3 construct: purchased Millipore Kinase Profiler
# Protocol: as §1
# [12] = target: T4, MAPKAP-K2 (Homo sapiens, UniProt P49137); experiment: Kinase Profiler; format: biochemical; conditions: STF-31 10 μM
# T4 construct: purchased Millipore Kinase Profiler
# Protocol: as §1
# [13] = target: T5, MSK1 (Homo sapiens, UniProt O75582); experiment: Kinase Profiler; format: biochemical; conditions: STF-31 10 μM
# T5 construct: purchased Millipore Kinase Profiler
# Protocol: as §1
# [14] = target: T6, GSK3α (Homo sapiens, UniProt P49840); experiment: Kinase Profiler; format: biochemical; conditions: STF-31 10 μM
# T6 construct: purchased Millipore Kinase Profiler
# Protocol: as §1
# [15] = target: T7, c-RAF (Homo sapiens, UniProt P04049); experiment: Kinase Profiler; format: biochemical; conditions: STF-31 10 μM
# T7 construct: purchased Millipore (Kinase Profiler service)
# Protocol: as §1
# [16] = target: T8, PKCδ (Homo sapiens, UniProt Q05655); experiment: Kinase Profiler; format: biochemical; conditions: STF-31 10 μM
# T8 construct: purchased Millipore (Kinase Profiler service)
# Protocol: as §1
# [17] = target: T9, MLK1 (Homo sapiens, UniProt P80192); experiment: Kinase Profiler; format: biochemical; conditions: STF-31 10 μM
# T9 construct: purchased Millipore Kinase Profiler
# Protocol: as §1
# [18] = target: T10, mTOR (Homo sapiens, UniProt P42345); experiment: Kinase Profiler; format: biochemical; conditions: STF-31 10 μM
# T10 construct: purchased Millipore Kinase Profiler
# Protocol: as §1
# [19] = target: T11, MEK1 (Homo sapiens, UniProt Q02750); experiment: Kinase Profiler; format: biochemical; conditions: STF-31 10 μM
# T11 construct: purchased Millipore Kinase Profiler
# Protocol: as §1
# [20] = target: T12, JAK2 (Homo sapiens, UniProt O60674); experiment: Kinase Profiler; format: biochemical; conditions: STF-31 10 μM
# T12 construct: purchased Millipore Kinase Profiler
# Protocol: as §1
# [21] = target: T13, NEK2 (Homo sapiens, UniProt P51955); experiment: Kinase Profiler; format: biochemical; conditions: STF-31 10 μM
# T13 construct: purchased Millipore Kinase Profiler
# Protocol: as §1
# [22] = target: T14, JNK1α1 (Homo sapiens, UniProt P45983); experiment: Kinase Profiler; format: biochemical; conditions: STF-31 10 μM
# T14 construct: purchased Millipore Kinase Profiler
# Protocol: as §1
# [23] = target: T15, PAK2 (Homo sapiens, UniProt Q13177); experiment: Kinase Profiler; format: biochemical; conditions: STF-31 10 μM
# T15 construct: purchased Millipore Kinase Profiler
# Protocol: as §1
# [24] = target: T16, CHK1 (Homo sapiens, UniProt O14757); experiment: Kinase Profiler; format: biochemical; conditions: STF-31 10 μM
# T16 construct: purchased Millipore (Kinase Profiler service)
# Protocol: as §1
# [25] = target: T17, CDK6/cyclinD3 (Homo sapiens, UniProt Q00534); experiment: Kinase Profiler; format: biochemical; conditions: STF-31 10 μM
# T17 construct: purchased Millipore (Kinase Profiler service)
# Protocol: as §1
# [26] = target: T18, PKBα (Homo sapiens, UniProt P31749); experiment: Kinase Profiler; format: biochemical; conditions: STF-31 10 μM
# T18 construct: purchased Millipore Kinase Profiler
# Protocol: as §1
# [27] = target: T19, Syk (Homo sapiens, UniProt P43405); experiment: Kinase Profiler; format: biochemical; conditions: STF-31 10 μM
# T19 construct: purchased Millipore (Kinase Profiler service)
# Protocol: as §1
# [28] = target: T20, PDK1 (Homo sapiens, UniProt O15530); experiment: Kinase Profiler; format: biochemical; conditions: STF-31 10 μM
# T20 construct: purchased Millipore Kinase Profiler
# Protocol: as §1
# [29] = target: T21, ASK1 (Homo sapiens, UniProt Q99683); experiment: Kinase Profiler; format: biochemical; conditions: STF-31 10 μM
# T21 construct: purchased Millipore (Kinase Profiler service)
# Protocol: as §1
# [30] = target: T22, CK1γ1 (Homo sapiens, UniProt Q9HCP0); experiment: Kinase Profiler; format: biochemical; conditions: STF-31 10 μM
# T22 construct: purchased Millipore (Kinase Profiler service)
# Protocol: as §1
# [31] = target: T23, CDK1/cyclinB (Homo sapiens, UniProt P06493); experiment: Kinase Profiler; format: biochemical; conditions: STF-31 10 μM
# T23 construct: purchased Millipore (Kinase Profiler service)
# Protocol: as §1
# [32] = target: T24, Axl (Homo sapiens, UniProt P30530); experiment: Kinase Profiler; format: biochemical; conditions: STF-31 10 μM
# T24 construct: purchased Millipore (Kinase Profiler service)
# Protocol: as §1
# [33] = test system: RCC4; experiment: RCC panel sensitivity (Table 2); format: cell-based; conditions: RCC4, VHL mutant
# [34] = test system: p53; experiment: DNA damage response (p53, phospho-p53 Western blot); format: cell-based; conditions: RCC4 and RCC4/VHL; 1.25, 2.5 and 5 μM
# T24 sequence (P30530 26-894, species assumed): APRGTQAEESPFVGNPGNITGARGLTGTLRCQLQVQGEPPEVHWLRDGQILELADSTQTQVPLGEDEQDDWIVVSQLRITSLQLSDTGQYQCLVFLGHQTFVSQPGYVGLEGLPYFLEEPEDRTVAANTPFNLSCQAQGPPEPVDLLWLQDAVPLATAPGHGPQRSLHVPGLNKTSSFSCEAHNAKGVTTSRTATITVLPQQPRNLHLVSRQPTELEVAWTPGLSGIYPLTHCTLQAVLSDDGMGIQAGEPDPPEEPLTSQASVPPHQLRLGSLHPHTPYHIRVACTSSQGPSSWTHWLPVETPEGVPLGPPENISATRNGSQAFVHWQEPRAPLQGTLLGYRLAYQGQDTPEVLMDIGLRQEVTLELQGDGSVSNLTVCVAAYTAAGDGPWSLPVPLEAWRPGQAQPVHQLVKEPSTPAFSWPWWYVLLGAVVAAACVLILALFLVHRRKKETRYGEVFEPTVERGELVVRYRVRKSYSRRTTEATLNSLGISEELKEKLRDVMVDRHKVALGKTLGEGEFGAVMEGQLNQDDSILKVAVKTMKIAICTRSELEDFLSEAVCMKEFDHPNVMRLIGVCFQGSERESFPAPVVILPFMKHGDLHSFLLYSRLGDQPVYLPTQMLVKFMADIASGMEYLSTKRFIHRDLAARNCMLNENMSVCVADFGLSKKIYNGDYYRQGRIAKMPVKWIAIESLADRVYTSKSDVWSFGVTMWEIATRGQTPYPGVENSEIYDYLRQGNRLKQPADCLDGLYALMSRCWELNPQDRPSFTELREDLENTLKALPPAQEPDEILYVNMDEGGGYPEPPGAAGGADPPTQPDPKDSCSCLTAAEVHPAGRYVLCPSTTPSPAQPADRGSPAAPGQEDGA
# T21 sequence (Q99683 whole entry, species assumed): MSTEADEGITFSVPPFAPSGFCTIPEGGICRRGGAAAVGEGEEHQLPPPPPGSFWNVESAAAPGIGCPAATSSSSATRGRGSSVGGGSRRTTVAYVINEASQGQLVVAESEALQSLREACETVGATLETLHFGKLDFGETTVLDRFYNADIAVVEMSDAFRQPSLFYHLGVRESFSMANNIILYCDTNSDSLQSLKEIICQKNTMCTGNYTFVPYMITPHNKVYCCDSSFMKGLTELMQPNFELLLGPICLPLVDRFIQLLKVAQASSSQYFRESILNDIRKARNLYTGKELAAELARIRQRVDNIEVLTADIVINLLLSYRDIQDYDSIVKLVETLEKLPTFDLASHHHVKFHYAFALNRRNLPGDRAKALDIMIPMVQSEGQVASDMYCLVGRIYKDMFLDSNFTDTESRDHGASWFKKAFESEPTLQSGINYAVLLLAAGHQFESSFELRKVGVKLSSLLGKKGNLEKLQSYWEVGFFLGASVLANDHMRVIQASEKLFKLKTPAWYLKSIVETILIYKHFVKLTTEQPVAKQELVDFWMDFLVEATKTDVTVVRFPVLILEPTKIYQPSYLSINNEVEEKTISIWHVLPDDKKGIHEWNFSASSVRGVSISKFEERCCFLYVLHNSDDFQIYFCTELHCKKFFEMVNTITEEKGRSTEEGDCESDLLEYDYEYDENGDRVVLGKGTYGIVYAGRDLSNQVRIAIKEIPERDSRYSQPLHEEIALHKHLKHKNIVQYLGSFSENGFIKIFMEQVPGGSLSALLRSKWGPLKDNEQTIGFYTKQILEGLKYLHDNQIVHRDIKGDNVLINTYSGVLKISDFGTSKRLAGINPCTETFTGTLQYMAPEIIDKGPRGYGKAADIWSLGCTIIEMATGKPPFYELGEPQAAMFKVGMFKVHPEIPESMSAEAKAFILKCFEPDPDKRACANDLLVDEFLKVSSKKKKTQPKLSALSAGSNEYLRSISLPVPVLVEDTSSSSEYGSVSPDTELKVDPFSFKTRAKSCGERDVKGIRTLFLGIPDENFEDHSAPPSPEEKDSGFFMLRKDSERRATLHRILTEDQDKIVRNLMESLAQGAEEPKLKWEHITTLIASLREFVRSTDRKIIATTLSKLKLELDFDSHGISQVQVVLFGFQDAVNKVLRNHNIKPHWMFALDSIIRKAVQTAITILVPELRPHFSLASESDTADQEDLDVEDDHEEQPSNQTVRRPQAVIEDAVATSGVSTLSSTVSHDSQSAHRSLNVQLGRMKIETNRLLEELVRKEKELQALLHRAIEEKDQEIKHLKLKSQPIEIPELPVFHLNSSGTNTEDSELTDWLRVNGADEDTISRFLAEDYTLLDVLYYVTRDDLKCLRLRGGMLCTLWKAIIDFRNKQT
# T1 sequence (Q14012 whole entry): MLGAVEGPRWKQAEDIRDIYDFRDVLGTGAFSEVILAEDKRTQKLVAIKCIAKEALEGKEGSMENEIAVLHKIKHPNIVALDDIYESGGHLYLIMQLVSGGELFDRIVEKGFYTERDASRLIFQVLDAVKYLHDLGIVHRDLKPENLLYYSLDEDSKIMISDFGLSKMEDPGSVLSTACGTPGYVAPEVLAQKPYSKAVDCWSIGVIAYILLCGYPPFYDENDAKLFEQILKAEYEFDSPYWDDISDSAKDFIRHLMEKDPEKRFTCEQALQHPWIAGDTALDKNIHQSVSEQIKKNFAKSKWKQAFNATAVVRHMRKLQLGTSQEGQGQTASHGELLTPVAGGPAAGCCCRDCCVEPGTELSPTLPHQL
# T17 sequence (Q00534 whole entry, species assumed): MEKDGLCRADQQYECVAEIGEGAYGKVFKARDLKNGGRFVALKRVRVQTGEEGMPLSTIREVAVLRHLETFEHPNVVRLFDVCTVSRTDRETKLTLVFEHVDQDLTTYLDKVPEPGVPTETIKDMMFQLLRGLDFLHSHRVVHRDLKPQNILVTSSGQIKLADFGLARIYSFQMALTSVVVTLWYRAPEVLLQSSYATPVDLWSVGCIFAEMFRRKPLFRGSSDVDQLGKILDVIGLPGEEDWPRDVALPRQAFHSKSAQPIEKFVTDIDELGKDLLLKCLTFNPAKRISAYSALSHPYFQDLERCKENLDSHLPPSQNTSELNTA
# T17 sequence (P30281 whole entry partner, species assumed): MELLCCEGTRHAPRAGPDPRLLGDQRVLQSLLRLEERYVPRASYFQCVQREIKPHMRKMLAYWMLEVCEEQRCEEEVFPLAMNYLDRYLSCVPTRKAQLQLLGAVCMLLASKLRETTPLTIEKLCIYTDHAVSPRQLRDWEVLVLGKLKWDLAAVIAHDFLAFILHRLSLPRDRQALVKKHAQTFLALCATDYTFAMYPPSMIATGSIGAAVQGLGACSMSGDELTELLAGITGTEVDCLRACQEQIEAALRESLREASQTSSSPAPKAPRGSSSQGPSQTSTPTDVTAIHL
# T12 sequence (O60674 whole entry, species assumed): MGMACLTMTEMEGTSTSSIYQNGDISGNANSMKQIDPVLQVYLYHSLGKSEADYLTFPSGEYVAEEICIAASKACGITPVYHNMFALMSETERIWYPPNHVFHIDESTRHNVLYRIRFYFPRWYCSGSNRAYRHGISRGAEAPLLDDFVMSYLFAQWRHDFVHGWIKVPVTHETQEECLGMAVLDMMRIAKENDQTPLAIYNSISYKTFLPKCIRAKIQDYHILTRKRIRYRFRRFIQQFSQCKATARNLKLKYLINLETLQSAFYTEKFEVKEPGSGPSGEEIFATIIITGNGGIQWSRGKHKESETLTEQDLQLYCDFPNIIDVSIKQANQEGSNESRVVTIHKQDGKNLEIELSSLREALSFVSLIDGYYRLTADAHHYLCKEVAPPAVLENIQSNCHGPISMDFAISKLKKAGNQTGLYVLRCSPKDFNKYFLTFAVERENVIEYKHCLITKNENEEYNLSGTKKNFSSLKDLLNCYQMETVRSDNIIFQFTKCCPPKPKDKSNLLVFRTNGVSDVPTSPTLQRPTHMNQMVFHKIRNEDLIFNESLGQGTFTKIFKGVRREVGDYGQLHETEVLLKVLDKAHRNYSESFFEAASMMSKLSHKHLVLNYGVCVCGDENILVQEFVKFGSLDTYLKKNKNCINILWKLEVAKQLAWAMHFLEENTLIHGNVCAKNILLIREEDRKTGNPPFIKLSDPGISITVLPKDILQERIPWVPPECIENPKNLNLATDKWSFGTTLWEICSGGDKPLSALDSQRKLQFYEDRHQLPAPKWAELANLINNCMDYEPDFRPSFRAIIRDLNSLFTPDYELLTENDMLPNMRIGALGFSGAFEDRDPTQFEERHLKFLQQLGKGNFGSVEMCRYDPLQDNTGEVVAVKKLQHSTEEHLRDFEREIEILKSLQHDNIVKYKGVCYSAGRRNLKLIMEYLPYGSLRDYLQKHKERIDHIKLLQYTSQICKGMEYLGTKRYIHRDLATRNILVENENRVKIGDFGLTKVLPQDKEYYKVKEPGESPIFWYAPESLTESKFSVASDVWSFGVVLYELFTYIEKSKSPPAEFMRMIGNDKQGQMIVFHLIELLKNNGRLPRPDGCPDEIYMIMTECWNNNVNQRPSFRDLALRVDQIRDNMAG
# T7 sequence (P04049 whole entry, species assumed): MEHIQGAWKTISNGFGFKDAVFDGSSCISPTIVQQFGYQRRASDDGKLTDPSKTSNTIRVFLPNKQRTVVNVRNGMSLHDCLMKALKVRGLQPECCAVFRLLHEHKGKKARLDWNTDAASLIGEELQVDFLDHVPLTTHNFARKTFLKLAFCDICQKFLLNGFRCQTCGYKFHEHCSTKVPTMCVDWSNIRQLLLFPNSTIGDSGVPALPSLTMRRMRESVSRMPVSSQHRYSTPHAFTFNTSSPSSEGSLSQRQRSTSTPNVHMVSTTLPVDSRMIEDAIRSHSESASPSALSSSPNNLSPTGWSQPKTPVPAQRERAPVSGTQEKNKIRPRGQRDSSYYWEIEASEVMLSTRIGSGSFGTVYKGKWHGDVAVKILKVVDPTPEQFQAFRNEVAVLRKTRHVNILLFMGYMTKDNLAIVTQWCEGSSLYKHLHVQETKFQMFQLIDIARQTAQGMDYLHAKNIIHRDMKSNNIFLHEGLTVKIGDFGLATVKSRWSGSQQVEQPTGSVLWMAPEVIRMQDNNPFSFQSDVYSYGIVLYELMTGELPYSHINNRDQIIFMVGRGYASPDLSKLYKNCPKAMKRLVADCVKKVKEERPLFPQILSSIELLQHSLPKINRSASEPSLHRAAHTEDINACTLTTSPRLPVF
smiles,measurement,setting,value
CC(C)(C)c1ccc(S(=O)(=O)NCc2ccc(C(=O)Nc3cccnc3)cc2)cc1 [STF-31],nuclear condensation,[1],no nuclear condensation
same,3-series sensitivity (sensitivity to STF-31),[2],No
same,kinase inhibition across 50 different kinases,[3],no significant decrease
same,glycolysis in cells with wild-type VHL,[4],did not alter
same,inhibition of lactate production,[5],about 60%
same,3-series sensitivity (sensitivity to STF-31),[6],No
same,inhibition of extracellular acidification,[7],about 60%
same,3-series sensitivity (sensitivity to STF-31),[8],Yes
same,Kinase response to STF-31,[9],87
same,Kinase response to STF-31,[10],84
same,Kinase response to STF-31,[11],96
same,Kinase response to STF-31,[12],87
same,Kinase response to STF-31,[13],107
same,Kinase response to STF-31,[14],134
same,Kinase response to STF-31,[15],103
same,Kinase response to STF-31,[16],116
same,Kinase response to STF-31,[17],97
same,Kinase response to STF-31,[18],101
same,Kinase response to STF-31,[19],99
same,Kinase response to STF-31,[20],113
same,Kinase response to STF-31,[21],103
same,Kinase response to STF-31,[22],101
same,Kinase response to STF-31,[23],97
same,Kinase response to STF-31,[24],114
same,Kinase response to STF-31,[25],105
same,Kinase response to STF-31,[26],99
same,Kinase response to STF-31,[27],94
same,Kinase response to STF-31,[28],105
same,Kinase response to STF-31,[29],129
same,Kinase response to STF-31,[30],85
same,Kinase response to STF-31,[31],96
same,Kinase response to STF-31,[32],87
same,3-series sensitivity (sensitivity to STF-31),[33],Yes
same,total p53 or phospho-p53 levels,[34],did not increase
